Source: US20110301217A1, “Selective Glycosidase Inhibitors and Uses Thereof” (priority 2008, published 2011)

Biological target: T1, O-GlcNAcase (Homo sapiens, UniProt O60502)
T1 sequence (O60502 1-916): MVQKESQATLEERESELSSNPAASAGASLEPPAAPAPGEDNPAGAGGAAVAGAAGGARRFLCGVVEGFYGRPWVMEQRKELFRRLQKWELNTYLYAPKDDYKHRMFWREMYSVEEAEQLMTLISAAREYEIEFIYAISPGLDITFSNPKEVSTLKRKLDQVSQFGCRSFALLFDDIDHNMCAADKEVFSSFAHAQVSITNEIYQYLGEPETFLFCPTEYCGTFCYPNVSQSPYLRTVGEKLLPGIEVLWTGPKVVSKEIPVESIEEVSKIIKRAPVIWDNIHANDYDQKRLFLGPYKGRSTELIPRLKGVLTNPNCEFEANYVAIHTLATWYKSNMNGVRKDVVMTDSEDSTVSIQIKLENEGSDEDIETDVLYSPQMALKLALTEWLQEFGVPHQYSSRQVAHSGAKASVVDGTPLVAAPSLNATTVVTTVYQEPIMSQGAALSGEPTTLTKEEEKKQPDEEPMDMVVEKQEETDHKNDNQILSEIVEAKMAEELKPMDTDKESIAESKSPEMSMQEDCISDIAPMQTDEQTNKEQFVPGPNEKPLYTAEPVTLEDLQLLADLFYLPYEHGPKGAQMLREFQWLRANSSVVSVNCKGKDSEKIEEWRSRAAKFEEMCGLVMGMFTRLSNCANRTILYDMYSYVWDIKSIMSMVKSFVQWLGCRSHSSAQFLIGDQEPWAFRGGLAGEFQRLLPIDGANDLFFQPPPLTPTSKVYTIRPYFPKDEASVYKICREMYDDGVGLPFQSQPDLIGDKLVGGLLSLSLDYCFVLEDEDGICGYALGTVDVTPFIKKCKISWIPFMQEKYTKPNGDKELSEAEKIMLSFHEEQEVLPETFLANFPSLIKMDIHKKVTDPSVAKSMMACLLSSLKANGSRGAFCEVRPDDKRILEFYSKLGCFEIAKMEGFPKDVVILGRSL
Assay: Assay for determination of KI values for inhibition of O-GlcNAcase activity (pNP-GlcNAc substrate)
Format: biochemical
Settings: PBS pH 7.4, 0.5 mM pNP-GlcNAc, 37° C., Dixon plots
Procedure: Assay for Determination of KI Values for Inhibition of O-GlcNAcase Activity
Experimental procedure for kinetic analyses: Enzymatic reactions are carried out in PBS buffer (pH 7.4) using pNP-GlcNAc as a substrate (0.5 mM) and monitored continuously at 37° C. at 400 nm using a Cary 3E UV-VIS spectrophotometer equipped with a Peltier temperature controller. Reactions are pre-heated in a 500 μL quartz cuvette for approximately 5 minutes followed by addition of 10 μL enzyme via syringe (final enzyme concentration 0.002 mg/mL). Reaction velocities are determined by linear regression of the linear region of the reaction progress curve between the first and third minutes. An inhibitor concentration range of 1/5 to 5 times KI is used in each case.
All KI values are determined using linear regression of Dixon plots.

Ki: 850 nM
SMILES: CC(=O)NC[C@H]1N[C@H](CO)[C@@H](O)[C@@H]1O [Compound 2, N-(((2R,3R,4R,5R)-3,4-dihydroxy-5-(hydroxymethyl)pyrrolidin-2-yl)methyl)acetamide]
